Results reported in patent publication US9138479B2, “Formulations for the treatment of diabetes” (XERIS PHARMACEUTICALS, INC., priority 2011, dated 2015).

Assay: Pramlintide solubility in DMSO and DMSO-water co-solvents (visual inspection)
Type: physicochemical
Details: pH memory 2.0; 20 mg/mL in neat DMSO
Description: • 3b. […] The resulting solutions are assessed visually for clarity and/or analyzed for light scattering using visible spectroscopy at […], and used in various downstream applications.
Solutions of pramlintide were prepared at a concentration of 2 mg/mL in 10 mM citrate, pH 2.0, or 10 mM citrate, pH 4.0, each with or without 2 mg/mL trehalose. The solutions were dried by centrifugation under vacuum for approximately 3.5 hours at 25-30° C., or lyophilized as described above.

appearance of solution by visual inspection: flowable and completely clear
Structure (SMILES): CC[C@H](C)[C@H](NC(=O)[C@@H]1CCCN1C(=O)CNC(=O)[C@H](Cc1ccccc1)NC(=O)[C@H](CC(N)=O)NC(=O)[C@H](CC(N)=O)NC(=O)[C@H](CO)NC(=O)[C@H](CO)NC(=O)[C@H](Cc1c[nH]cn1)NC(=O)[C@@H](NC(=O)[C@H](CC(C)C)NC(=O)[C@H](Cc1ccccc1)NC(=O)[C@H](CC(N)=O)NC(=O)[C@H](C)NC(=O)[C@H](CC(C)C)NC(=O)[C@H](CCCNC(=N)N)NC(=O)[C@H](CCC(N)=O)NC(=O)[C@@H](NC(=O)[C@H](C)NC(=O)[C@@H]1CSSC[C@H](NC(=O)[C@@H](N)CCCCN)C(=O)N[C@@H](CC(N)=O)C(=O)N[C@@H]([C@@H](C)O)C(=O)N[C@@H](C)C(=O)N[C@@H]([C@@H](C)O)C(=O)N1)[C@@H](C)O)C(C)C)C(=O)N[C@@H](CC(C)C)C(=O)N1CCC[C@H]1C(=O)N1CCC[C@H]1C(=O)N[C@H](C(=O)N[C@@H](CC(N)=O)C(=O)N[C@H](C(=O)NCC(=O)N[C@@H](CO)C(=O)N[C@@H](CC(N)=O)C(=O)N[C@H](C(=O)N[C@@H](Cc1ccc(O)cc1)C(N)=O)[C@@H](C)O)C(C)C)[C@@H](C)O [pramlintide]
